Experimental data taken from US20260317340A1, “COMPOUNDS, COMPOSITIONS, AND METHODS OF TREATING DISORDERS” (Chengdu Anticancer Bioscience, Ltd., priority 2023, published 2026).
Read-outs that look alike come from different tables or passages of the source.

What was measured:
[1] = test system: RPE-Neo or RPE-MYC cells; test: MTT assay of cellular proliferation (proliferative arrest); format: cell-based; settings: read-out: Min. Effective conc. for Proliferative arrest (>50%)
[2] = test system: RPE-Neo or RPE-MYC or RPE-MYC expressing an EGFP-Histone 2B fusion protein; test: Phenotypic screening assay: arrest in mitosis, change in DNA content (polyploidy), cell death; format: cell-based; settings: 20 nM to 20 μM, 24, 48 or 72 hours
Outline: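 Compound exposure from 20 nM to 20 μM in RPE lines (Neo, MYC, or MYC with EGFP-histone H2B), seeded 18-24 h earlier; imaging at 24, 48 or 72 h read mitotic arrest or altered DNA content, with MTT for proliferation. Results reported as A–D range categories.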

[3] = read-out: Min. Effective conc. for Along with Cell Death
[4] = ≥5%, read-out: Min. Effective conc. for Mitotic Arrest (≥5%)
[5] = ≥5%, read-out: Min. Effective conc. for Polyploidy (≥5%)

| Compound | minimal effective concentration [1] [µM] | minimal effective concentration [2, 3] [µM] | minimal effective concentration [2, 4] [µM] | minimal effective concentration [2, 5] [µM] |
| --- | --- | --- | --- | --- |
| COc1ccc(CN2C(=O)CC(c3ncc(C)o3)=Cc3ccc(-c4cnn(CC#N)c4)cc32)cc1 [Compound 68, 2-(4-(1-(4-methoxybenzyl)-4-(5-methyloxazol-2-yl)-2-oxo-2,3-dihydro-1H-benzo[b]azepin-8-yl)-1H-pyrazol-1-yl)acetonitrile] | 0.001 to 1 | 0.001 to 1 | 0.001 to 1 | 0.001 to 1 |
| COc1ccc(CN2C(=O)CC(c3ncc(C)o3)=Cc3ccc(-c4cnn(CC(=O)O)c4)cc32)cc1 [Compound 69, 2-(4-(1-(4-Methoxybenzyl)-4-(5-methyloxazol-2-yl)-2-oxo-2,3-dihydro-1H-benzo[b]azepin-8-yl)-1H-pyrazol-1-yl)acetic acid] | 1 to 10 | 1 to 10 | 1 to 10 | 1 to 10 |
| COc1ccc(CN2C(=O)CC(c3ncc(C)o3)=Cc3ccc(-c4cnn(C5CNC5)c4)cc32)cc1 [Compound 70, 8-(1-(Azetidin-3-yl)-1H-pyrazol-4-yl)-1-(4-methoxybenzyl)-4-(5-methyloxazol-2-yl)-1,3-dihydro-2H-benzo[b]azepin-2-one] | 0.001 to 1 | 0.001 to 1 | 0.001 to 1 | 0.001 to 1 |
| CCOC(=O)Cn1cc(-c2ccc3c(c2)N(Cc2ccc(OC)cc2)C(=O)CC(c2ncc(C)o2)=C3)cn1 [Compound 71, Ethyl 2-(4-(1-(4-methoxybenzyl)-4-(5-methyloxazol-2-yl)-2-oxo-2,3-dihydro-1H-benzo[b]azepin-8-yl)-1H-pyrazol-1-yl)acetate] | 0.001 to 1 | 0.001 to 1 | 0.001 to 1 | 0.001 to 1 |
| COc1ccc(CN2C(=O)CC(c3ncc(C)o3)=Cc3ccc(-c4cnn(C(C)C(N)=O)c4)cc32)cc1 (stereo not shown) [Compound 72] | 0.001 to 1 | 0.001 to 1 | 0.001 to 1 | 0.001 to 1 |
| COc1ccc(CN2C(=O)CC(c3ncc(C)o3)=Cc3ccc(-c4cnn(CC(=O)N(C)C)c4)cc32)cc1 [Compound 73, 2-(4-(1-(4-Methoxybenzyl)-4-(5-methyloxazol-2-yl)-2-oxo-2,3-dihydro-1H-benzo[b]azepin-8-yl)-1H-pyrazol-1-yl)-N,N-dimethylacetamide] | 0.001 to 1 | 0.001 to 1 | 0.001 to 1 | 0.001 to 1 |
| CCOC(=O)C(C)n1cc(-c2ccc3c(c2)N(Cc2ccc(OC)cc2)C(=O)CC(c2ncc(C)o2)=C3)cn1 (stereo not shown) [Compound 74, Ethyl 2-(4-(1-(4-methoxybenzyl)-4-(5-methyloxazol-2-yl)-2-oxo-2,3-dihydro-1H-benzo[b]azepin-8-yl)-1H-pyrazol-1-yl)propanoate] | 0.001 to 1 | 0.001 to 1 | 0.001 to 1 | 0.001 to 1 |
| COc1ccc(CN2C(=O)CC(c3ncc(C)o3)=Cc3ccc(-c4cnn(C(C)C(=O)O)c4)cc32)cc1 (stereo not shown) [Compound 75, 2-(4-(1-(4-Methoxybenzyl)-4-(5-methyloxazol-2-yl)-2-oxo-2,3-dihydro-1H-benzo[b]azepin-8-yl)-1H-pyrazol-1-yl)propanoic acid] | 1 to 10 | 1 to 10 | 1 to 10 | 1 to 10 |
| COc1ccc(CN2C(=O)CC(c3ncc(C)o3)=Cc3ccc(-c4cnn(C(C)(C)C(N)=O)c4)cc32)cc1 [Compound 76, 2-(4-(1-(4-Methoxybenzyl)-4-(5-methyloxazol-2-yl)-2-oxo-2,3-dihydro-1H-benzo[b]azepin-8-yl)-1H-pyrazol-1-yl)-2-methylpropanamide] | 0.001 to 1 | 0.001 to 1 | 0.001 to 1 | 0.001 to 1 |
| [2H]C([2H])([2H])OCCCn1cc(-c2ccc3c(c2)N(Cc2ccc(OC)cc2)C(=O)CC(c2ncc(C)o2)=C3)cn1 [Compound 77, 8-(1-(3-(Methoxy-d3)propyl)-1H-pyrazol-4-yl)-1-(4-methoxybenzyl)-4-(5-methyloxazol-2-yl)-1,3-dihydro-2H-benzo[b]azepin-2-one] | 0.001 to 1 | 0.001 to 1 | 0.001 to 1 | 0.001 to 1 |
| COCCOCCn1cc(-c2ccc3c(c2)N(Cc2ccc(OC)cc2)C(=O)CC(c2ncc(C)o2)=C3)cn1 [Compound 78, 1-(4-methoxybenzyl)-8-(1-(2-(2-methoxyethoxy)ethyl)-1H-pyrazol-4-yl)-4-(5-methyloxazol-2-yl)-1,3-dihydro-2H-benzo[b]azepin-2-one] | 0.001 to 1 | 0.001 to 1 | 0.001 to 1 | 0.001 to 1 |
| COCCCCn1cc(-c2ccc3c(c2)N(Cc2ccc(OC)cc2)C(=O)CC(c2ncc(C)o2)=C3)cn1 [Compound 79, 1-(4-methoxybenzyl)-8-(1-(4-methoxybutyl)-1H-pyrazol-4-yl)-4-(5-methyloxazol-2-yl)-1,3-dihydro-2H-benzo[b]azepin-2-one] | 0.001 to 1 | 0.001 to 1 | 0.001 to 1 | 0.001 to 1 |
| CCOCCn1cc(-c2ccc3c(c2)N(Cc2ccc(OC)cc2)C(=O)CC(c2ncc(C)o2)=C3)cn1 [Compound 80, 8-(1-(2-ethoxyethyl)-1H-pyrazol-4-yl)-1-(4-methoxybenzyl)-4-(5-methyloxazol-2-yl)-1,3-dihydro-2H-benzo[b]azepin-2-one] | 0.001 to 1 | 0.001 to 1 | 0.001 to 1 | 0.001 to 1 |
| COc1ccc(CN2C(=O)CC(c3ncc(C)o3)=Cc3ccc(-c4cnn(C(C)=O)c4)cc32)cc1 [Compound 81, 8-(1-Acetyl-1H-pyrazol-4-yl)-1-(4-methoxybenzyl)-4-(5-methyloxazol-2-yl)-1,3-dihydro-2H-benzo[b]azepin-2-one] | 0.001 to 1 | 0.001 to 1 | 0.001 to 1 | 0.001 to 1 |
| COc1ccc(CN2C(=O)CC(c3ncc(C)o3)=Cc3ccc(-c4cnn(C(C)C(C)O)c4)cc32)cc1 (stereo not shown) [Compound 83, 8-(1-(3-Hydroxybutan-2-yl)-1H-pyrazol-4-yl)-1-(4-methoxybenzyl)-4-(5-methyloxazol-2-yl)-1,3-dihydro-2H-benzo[b]azepin-2-one] | 0.001 to 1 | 0.001 to 1 | 0.001 to 1 | 0.001 to 1 |
| CCS(=O)(=O)N1CC(CC#N)(n2cc(-c3ccc4c(c3)N(Cc3ccc(OC)cc3)C(=O)CC(c3ncc(C)o3)=C4)cn2)C1 [Compound 84, 2-(1-(Ethylsulfonyl)-3-(4-(1-(4-methoxybenzyl)-4-(5-methyloxazol-2-yl)-2-oxo-2,3-dihydro-1H-benzo[b]azepin-8-yl)-1H-pyrazol-1-yl)azetidin-3-yl)acetonitrile] | 0.001 to 1 | 0.001 to 1 | 0.001 to 1 | 0.001 to 1 |
